Data reported in patent US11191806B2, “Polymyxin-based pharmaceutical composition for treating infectious diseases” (priority 2018, dated 2021).
One block for each molecule: values may come before it. Bridge positions count the residues as written; N and C are the ends. Square brackets hold non-standard residues; d marks the D form. Peptide text beside a SMILES is read from it. * marks the point of attachment. X1 = CC[C@H](C)CCCCC(=O)*; Dab = NCC[C@H](N)C(=O)O

Tests used:
[1] = molecular target: T1, megalin of rat kidney homogenate (Rattus norvegicus, UniProt P98158); experiment: Binding of cyanocobalamin derivatives to renal megalin (micromethod in Eppendorf tubes, HPLC of supernatant); conditions: derivative in supernatant after centrifugation determined by HPLC
T1 construct: megalin of rat kidney homogenate; from tissue; host or cells: rat kidney homogenate
T1 sequence (P98158 26-4660): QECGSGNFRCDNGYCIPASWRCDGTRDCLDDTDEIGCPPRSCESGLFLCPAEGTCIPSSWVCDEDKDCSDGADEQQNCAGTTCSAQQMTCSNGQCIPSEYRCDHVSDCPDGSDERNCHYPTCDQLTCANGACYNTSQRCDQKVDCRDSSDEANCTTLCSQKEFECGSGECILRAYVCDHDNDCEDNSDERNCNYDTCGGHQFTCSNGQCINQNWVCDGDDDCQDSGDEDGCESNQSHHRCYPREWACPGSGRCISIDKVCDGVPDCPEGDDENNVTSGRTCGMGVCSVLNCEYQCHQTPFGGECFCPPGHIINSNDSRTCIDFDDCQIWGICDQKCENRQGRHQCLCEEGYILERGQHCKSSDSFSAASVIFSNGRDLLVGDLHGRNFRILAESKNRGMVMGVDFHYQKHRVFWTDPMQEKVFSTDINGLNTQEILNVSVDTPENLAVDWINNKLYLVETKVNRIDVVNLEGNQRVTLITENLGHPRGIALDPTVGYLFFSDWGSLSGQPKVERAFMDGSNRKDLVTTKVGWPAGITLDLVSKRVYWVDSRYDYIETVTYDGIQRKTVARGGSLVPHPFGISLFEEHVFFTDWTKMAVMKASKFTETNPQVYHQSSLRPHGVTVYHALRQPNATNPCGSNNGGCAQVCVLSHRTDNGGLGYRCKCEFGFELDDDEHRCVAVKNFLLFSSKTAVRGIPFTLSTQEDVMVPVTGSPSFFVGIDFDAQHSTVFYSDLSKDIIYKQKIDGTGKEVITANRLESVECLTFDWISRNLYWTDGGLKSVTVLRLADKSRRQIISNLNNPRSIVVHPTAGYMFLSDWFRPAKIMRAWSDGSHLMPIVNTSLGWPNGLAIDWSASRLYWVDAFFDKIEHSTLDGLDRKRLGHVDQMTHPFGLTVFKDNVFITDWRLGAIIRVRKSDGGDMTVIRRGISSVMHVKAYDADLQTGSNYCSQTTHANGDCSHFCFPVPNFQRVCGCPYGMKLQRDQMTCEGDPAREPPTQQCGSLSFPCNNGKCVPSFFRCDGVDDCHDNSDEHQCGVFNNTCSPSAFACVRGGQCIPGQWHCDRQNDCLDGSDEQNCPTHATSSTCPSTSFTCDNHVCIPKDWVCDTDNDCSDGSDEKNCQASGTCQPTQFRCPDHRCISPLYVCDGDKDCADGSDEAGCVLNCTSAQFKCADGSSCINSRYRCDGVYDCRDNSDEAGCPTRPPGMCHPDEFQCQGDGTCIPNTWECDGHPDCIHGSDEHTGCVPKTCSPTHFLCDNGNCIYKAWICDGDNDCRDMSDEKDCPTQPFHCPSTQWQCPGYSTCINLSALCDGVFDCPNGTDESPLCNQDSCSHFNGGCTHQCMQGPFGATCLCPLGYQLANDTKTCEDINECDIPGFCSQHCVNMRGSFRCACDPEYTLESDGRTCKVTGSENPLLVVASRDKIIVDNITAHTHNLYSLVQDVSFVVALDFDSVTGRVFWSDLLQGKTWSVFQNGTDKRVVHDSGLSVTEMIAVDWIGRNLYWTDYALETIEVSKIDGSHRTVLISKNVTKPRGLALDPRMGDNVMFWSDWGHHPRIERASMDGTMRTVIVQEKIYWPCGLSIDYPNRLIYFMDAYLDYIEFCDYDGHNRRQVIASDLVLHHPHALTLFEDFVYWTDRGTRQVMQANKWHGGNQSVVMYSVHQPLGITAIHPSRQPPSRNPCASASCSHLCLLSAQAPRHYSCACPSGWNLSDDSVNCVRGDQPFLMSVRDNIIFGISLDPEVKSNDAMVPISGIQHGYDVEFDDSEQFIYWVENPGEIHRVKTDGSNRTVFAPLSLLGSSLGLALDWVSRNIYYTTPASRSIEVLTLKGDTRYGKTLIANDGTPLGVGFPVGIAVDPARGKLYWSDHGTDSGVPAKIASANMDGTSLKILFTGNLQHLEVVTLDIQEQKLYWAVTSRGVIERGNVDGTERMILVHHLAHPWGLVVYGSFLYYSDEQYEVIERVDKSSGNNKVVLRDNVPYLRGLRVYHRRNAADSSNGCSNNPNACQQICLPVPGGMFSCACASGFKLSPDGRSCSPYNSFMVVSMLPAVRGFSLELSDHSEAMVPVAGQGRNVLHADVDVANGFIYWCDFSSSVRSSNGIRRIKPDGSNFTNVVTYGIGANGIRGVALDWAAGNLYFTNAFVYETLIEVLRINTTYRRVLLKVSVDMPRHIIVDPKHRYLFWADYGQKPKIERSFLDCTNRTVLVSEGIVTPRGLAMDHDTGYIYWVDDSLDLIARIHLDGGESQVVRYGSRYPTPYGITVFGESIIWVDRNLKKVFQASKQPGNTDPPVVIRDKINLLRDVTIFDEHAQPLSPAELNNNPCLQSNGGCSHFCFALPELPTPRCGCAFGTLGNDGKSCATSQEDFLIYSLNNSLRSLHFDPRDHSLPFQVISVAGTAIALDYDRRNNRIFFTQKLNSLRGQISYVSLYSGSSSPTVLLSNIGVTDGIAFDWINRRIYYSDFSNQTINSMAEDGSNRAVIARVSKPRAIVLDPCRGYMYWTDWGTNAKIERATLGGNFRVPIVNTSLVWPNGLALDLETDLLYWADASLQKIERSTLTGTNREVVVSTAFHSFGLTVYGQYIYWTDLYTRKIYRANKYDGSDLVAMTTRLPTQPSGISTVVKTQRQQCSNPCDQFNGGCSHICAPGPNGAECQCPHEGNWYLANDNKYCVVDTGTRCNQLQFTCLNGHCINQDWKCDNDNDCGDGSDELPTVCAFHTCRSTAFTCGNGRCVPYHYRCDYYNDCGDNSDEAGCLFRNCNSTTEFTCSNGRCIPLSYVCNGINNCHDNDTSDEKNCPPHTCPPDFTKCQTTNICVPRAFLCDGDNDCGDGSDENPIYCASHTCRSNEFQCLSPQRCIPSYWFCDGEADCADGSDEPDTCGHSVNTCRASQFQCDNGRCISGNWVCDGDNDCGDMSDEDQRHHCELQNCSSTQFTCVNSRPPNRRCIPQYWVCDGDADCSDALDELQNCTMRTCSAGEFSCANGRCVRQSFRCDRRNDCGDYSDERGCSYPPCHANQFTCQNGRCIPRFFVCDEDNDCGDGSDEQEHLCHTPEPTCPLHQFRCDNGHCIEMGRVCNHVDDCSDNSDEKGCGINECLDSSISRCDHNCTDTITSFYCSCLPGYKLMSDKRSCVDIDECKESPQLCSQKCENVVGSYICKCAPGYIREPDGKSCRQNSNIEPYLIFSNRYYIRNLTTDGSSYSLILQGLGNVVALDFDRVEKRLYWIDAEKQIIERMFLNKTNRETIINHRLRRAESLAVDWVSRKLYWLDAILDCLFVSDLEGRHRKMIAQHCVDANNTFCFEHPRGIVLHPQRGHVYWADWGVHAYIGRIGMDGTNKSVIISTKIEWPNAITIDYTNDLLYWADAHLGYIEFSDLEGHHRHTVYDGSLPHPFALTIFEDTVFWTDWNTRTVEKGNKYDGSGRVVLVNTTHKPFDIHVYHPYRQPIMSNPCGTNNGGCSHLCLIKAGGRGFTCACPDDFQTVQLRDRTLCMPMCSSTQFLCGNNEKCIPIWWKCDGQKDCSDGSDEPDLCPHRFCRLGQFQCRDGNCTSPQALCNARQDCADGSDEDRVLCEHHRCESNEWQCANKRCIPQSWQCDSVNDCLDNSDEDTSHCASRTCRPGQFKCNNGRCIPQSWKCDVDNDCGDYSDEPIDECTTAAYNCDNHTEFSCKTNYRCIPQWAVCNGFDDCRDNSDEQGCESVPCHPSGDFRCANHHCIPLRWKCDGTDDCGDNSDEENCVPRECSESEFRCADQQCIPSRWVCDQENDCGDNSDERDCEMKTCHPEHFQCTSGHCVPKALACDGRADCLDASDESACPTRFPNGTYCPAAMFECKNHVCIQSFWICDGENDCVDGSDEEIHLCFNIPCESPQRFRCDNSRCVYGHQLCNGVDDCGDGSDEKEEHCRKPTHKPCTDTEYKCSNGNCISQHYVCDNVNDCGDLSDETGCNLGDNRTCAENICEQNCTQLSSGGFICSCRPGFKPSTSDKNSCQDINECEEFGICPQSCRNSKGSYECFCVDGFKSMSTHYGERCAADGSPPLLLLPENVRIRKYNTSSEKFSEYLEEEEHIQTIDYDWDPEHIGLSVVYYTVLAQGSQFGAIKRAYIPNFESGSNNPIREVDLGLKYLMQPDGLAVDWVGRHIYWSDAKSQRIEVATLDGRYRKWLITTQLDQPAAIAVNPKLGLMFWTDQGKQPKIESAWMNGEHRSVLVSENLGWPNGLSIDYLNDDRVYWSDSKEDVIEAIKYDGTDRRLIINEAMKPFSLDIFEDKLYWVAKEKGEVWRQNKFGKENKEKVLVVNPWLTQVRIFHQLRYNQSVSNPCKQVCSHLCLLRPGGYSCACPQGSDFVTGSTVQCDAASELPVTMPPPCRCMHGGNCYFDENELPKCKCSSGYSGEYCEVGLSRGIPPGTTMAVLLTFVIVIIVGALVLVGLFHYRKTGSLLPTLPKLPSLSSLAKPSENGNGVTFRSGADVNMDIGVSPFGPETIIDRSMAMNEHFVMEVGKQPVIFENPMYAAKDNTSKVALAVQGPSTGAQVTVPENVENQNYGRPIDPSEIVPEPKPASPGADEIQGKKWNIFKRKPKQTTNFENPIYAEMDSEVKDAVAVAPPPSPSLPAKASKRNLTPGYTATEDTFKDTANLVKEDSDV
Description: The test was carried out by a micromethod in Eppendorf tubes on the ability of cyanocobalamin derivatives to bind to megalin: after centrifugation, the bound derivative together with megalin remained in the sediment, and the percentage of the remaining unreacted cyanocobalamin derivative in the supernatant was determined using HPLC on a Milichrom A-02 liquid chromatograph.

[2] = Degree of destruction of kidney tissue: urinary NGAL and NAG (ELISA); assay type: in vivo, rats
Description: The degree of destruction of kidney tissue was determined by the concentration in the urine of acetyl-beta-glucosaminidase (N-acetyl-beta-d-glucosaminidase) (NAG) and neutrophilic gelatinase-associated lipocalin (neutrophil gelatinase-associated lipocalin) (NGAL) (Table 5).
The concentrations of NGAL and NAG in urine were determined using ELISA-text systems on a StatFax303+reader.

[3] = Accumulation of colistin in the kidneys after intravenous injection; assay type: in vivo; conditions: rats, colistin 0.5 mg/kg, SCDC 2 mg/kg
Description: In this experiment was determined, the accumulation of colistin in the kidneys of rats after intravenous injection of Polyfro (colistin, SCDC and liposomal cholecalciferol). Concentrations of colistin (CC), SCDC/cholecalciferol (CCF) were used based on preliminary modeling (the number of binding sites in one molecule, multiplied by their number in one megalin molecule, the molecular weight of megalin and the approximate amount of megalin in one kidney and the weight of the kidney) The result was the required amount of SCDC about 2 mg/kg of weight. For CS, a subtoxic dose was selected (based on the instructions). This is an experiment on the “displacement” of polymyxin from the kidneys with a synergistic combination of SCDC/HCF. As a result, about half of the polymyxin was displaced from the kidneys by SCDC/HCF. All components of CC, SCDC/CCF were determined in the sediment of renal homogenate and supernatant by HPLC. […] The content of colistin in the kidneys (A) and its concentration in terms of the weight of the kidneys (μg/g) (B) are shown in FIG. 1.
All data are statistically significant and differences between groups and controls are significant.

[4] = Table 5, rats, i.v. 1 time per day for 10 days, 0.5/15 mg/kg polymyxin/SCDC

% bound derivative [1]: 6%
Molecule: trisuccinyl-cyanocobalamin [derivative 30]

Molecule: CC[C@H](C)CCCCC(=O)N[C@@H](CCN)C(=O)N[C@H](C(=O)N[C@@H](CCN)C(=O)N[C@H]1CCNC(=O)[C@H]([C@@H](C)O)NC(=O)[C@H](CCN)NC(=O)[C@H](CCN)NC(=O)[C@H](CC(C)C)NC(=O)[C@@H](CC(C)C)NC(=O)[C@H](CCN)NC1=O)[C@@H](C)O [Colistin, colistin] (X1-[Dab]T[Dab][Dab][Dab][dL]L[Dab][Dab]T; lactam 4-C)
Urinary Excretion of NGAL [2, 4]: 775 ± 33 µg/h
Urinary NAG Excretion [2, 4]: 2578 ± 95 µg/h
Urinary Excretion of NGAL ([2]; Table 6, n = 15): 775 ± 33 µg/h
Urinary NAG Excretion ([2]; Table 6, n = 15): 2578 ± 95 µg/h
Accumulation of colistin in the kidneys [3]: 20.5 ± 2.5 µg

% bound derivative [1]: 7%
Molecule: triacetyl-cyanocobalamin [derivative 31]

% bound derivative [1]: 52%
Molecule: cyanocobalamin [derivative 11]
